Laboratory results: article PMC9073595, “Synthesis, human topoisomerase IIα inhibitory properties and molecular modeling studies of anti-proliferative curcumin mimics” (RSC Advances, 2019)

Columns and labels:
[1] = system: HCT116 (colon) carcinoma cell line; assay: MTT anti-proliferative assay, HCT116; format: cell-based; conditions: Homo sapiens, HCT-116, 72 h; read-out: IC50, μM ± SD, HCT116
[2] = system: MCF7 (breast) carcinoma cell line; assay: MTT anti-proliferative assay, MCF7; format: cell-based; conditions: Homo sapiens, MCF7, 72 h; read-out: IC50, μM ± SD, MCF7
[3] = system: A431 (squamous skin) carcinoma cell line; assay: MTT anti-proliferative assay, A431; format: cell-based; conditions: Homo sapiens, A-431, 72 h; read-out: IC50, μM ± SD, A431
[4] = system: RPE1 (normal human immortalized retinal pigment epithelial cell line); assay: MTT assay on normal cells, RPE1; format: cell-based; conditions: RPE-1, RPE1 normal (non-cancer) cell line, read-out: IC50, μM ± SD, RPE1
Procedure: In-vitro antitumor screening
The targeted piperidinecarboxamides 24‒51 were screened for their antitumor properties against HCT116 (colon), MCF7 (breast) and A431 (squamous skin) carcinoma cell lines by the standard mitochondrial dependent reduction of yellow MTT [3-(4,5-dimethylthiazol-2-yl)-2,5-diphenyl-tetrazolium bromide] to purple formazan technique.11 Cells were suspended in McCoy’s 5A medium for HCT116, DMEM for MCF-7 and A431 in addition to 1% antibiotic–antimycotic mixture (10000 μg ml-1 potassium penicillin, 10000 μg ml-1 streptomycin sulfate and 25 μg ml-1 amphotericin B), 10% fetal bovine serum and 1% L-glutamine at 37 °C, under 5% CO2 and 95% humidity. Cells were seeded at concentration of 30000 cells per well in fresh complete growth medium in 96-well tissue culture microtiter plates for 24 h. Media was aspirated, fresh complete medium was added and cells were incubated with different concentrations of the tested compound to give a final concentration of [50, 25, 12.5 and 6.25 μM ([…] and 0.375 μM for the high potent analogues)]. 0.5% DMSO was used as negative control and 5-fluorouracil was used as positive control (standard reference). Triplicate wells were prepared for each individual dose. After 72 h of incubation, medium was aspirated, 40 μl MTT salt (2.5 mg ml-1) were added to each well and incubated for further 4 h at 37 °C.
To stop the reaction and dissolve the formed crystals, 150 μl of 10% sodium dodecyl sulfate (SDS) in deionized water were added to each well and incubated overnight at 37 °C. The absorbance was then measured at 570 nm and a reference wavelength of 595 nm.
Data were collected as mean values for experiments performed in triplicates for each individual dose which had been measured by MTT assay. Control experiments did […]
survival was calculated according to equ. (1).
Surviving fraction = … . (1)
The synthesized compounds 24‒51 were also tested against RPE1 (normal human immortalized retinal pigment epithelial cell line) cell to determine the toxicity/selectivity […]
towards normal cells relative to the carcinoma cell lines utilized. The IC50 (concentration […]
was determined using Graph-Pad PRISM version-5 software. Statistical calculations for determination of the mean and standard error values were determined by SPSS 16 […]
8:1 which is the ratio between the data points and the number of QSAR descriptor).
Human DNA topoisomerase IIα inhibitory properties

[5] = target: T1, human DNA topoisomerase IIα (Homo sapiens, UniProt P11388); assay: Human DNA topoisomerase IIα activity assay (TopoGEN kit, plasmid based); format: biochemical
T1 construct: purchased TopoGEN, Inc
T1 sequence (P11388 whole entry): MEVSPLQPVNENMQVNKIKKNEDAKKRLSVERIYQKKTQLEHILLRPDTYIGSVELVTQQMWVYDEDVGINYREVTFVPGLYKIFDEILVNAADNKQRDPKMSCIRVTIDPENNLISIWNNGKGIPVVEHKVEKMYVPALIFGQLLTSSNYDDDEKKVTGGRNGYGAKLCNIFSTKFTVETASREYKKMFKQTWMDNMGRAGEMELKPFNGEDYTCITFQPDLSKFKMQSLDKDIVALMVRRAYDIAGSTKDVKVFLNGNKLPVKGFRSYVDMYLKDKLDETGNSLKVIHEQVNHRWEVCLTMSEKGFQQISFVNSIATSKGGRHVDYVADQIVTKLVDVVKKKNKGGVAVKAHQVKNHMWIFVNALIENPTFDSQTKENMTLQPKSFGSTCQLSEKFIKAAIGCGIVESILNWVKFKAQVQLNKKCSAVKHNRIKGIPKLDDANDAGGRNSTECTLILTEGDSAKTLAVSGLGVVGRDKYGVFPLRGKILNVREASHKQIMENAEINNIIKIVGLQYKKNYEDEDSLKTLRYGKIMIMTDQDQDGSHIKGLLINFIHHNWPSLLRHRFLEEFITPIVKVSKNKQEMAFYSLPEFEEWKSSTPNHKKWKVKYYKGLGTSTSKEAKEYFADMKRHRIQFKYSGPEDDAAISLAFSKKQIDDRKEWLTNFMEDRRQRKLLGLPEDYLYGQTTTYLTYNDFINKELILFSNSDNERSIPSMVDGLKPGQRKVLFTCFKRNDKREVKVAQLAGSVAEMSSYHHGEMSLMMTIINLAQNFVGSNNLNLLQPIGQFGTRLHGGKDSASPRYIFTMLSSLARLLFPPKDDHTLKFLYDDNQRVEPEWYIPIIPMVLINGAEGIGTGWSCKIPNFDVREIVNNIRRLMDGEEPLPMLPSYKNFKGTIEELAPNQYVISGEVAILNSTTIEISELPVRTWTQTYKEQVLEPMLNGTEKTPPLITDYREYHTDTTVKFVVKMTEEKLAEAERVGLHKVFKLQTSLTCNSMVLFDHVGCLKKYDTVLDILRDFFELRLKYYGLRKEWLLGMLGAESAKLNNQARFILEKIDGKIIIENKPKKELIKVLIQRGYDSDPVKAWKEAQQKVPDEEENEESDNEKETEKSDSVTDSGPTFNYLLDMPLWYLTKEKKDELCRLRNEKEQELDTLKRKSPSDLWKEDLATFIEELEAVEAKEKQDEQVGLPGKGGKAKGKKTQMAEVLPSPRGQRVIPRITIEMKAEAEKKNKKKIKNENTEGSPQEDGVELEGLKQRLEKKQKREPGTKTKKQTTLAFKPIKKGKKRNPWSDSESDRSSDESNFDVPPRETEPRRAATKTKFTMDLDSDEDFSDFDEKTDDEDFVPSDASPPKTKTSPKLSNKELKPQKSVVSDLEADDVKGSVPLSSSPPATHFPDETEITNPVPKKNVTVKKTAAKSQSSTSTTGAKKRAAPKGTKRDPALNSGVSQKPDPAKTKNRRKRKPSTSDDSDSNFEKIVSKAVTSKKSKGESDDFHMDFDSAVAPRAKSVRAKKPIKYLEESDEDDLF

Row | IC50 [1] | IC50 [2] | IC50 [3] | IC50 [5] | melting point | Structure (SMILES) | IC50 [4]
1 | 1.29 ± 0.19 µM | 4.89 ± 0.25 µM | 7.98 ± 1.34 µM | 33 ± 1.28 µM | 177 to 179 °C | COc1ccc(/C=C2\CN(C(=O)NCc3ccccc3)C/C(=C\c3ccc(OC)cc3)C2=O)cc1 [Compound 47, N-Benzyl-3,5-bis[(E)-4-methoxybenzylidene]-4-oxopiperidine-1-carboxamide] | > 50 µM
2 | 1.23 ± 0.15 µM | 3.96 ± 0.23 µM | 2.72 ± 0.2 µM | 28.3 ± 1.09 µM | 190 to 192 °C | COc1ccc(/C=C2\CN(C(=O)Nc3ccccc3)C/C(=C\c3ccc(OC)cc3)C2=O)cc1 [Compound 43, 3,5-Bis[(E)-4-methoxybenzylidene]-4-oxo-N-phenylpiperidine-1-carboxamide] | > 50 µM
3 | 1.38 ± 0.15 µM | 5.85 ± 0.31 µM | 11.3 ± 1.1 µM | 39.3 ± 1.52 µM | 212 to 214 °C | COc1ccc(/C=C2\CN(C(=O)Nc3ccc(OC)cc3)C/C(=C\c3ccc(OC)cc3)C2=O)cc1 [Compound 45, 3,5-Bis[(E)-4-methoxybenzylidene]-N-(4-methoxyphenyl)-4-oxopiperidine-1-carboxamide] | > 50 µM

More lines, now with the values behind:

Row | Structure (SMILES) | IC50 [1] | IC50 [2] | IC50 [3] | IC50 [5] | melting point | IC50 [4]
4 | O=C1/C(=C/c2ccc(Cl)cc2)CN(C(=O)Nc2ccccc2)C/C1=C\c1ccc(Cl)cc1 [Compound 29, 3,5-Bis[(E)-4-chlorobenzylidene]-4-oxo-N-phenylpiperidine-1-carboxamide] | 0.7 ± 0.06 µM | 1.33 ± 0.24 µM | 1.29 ± 0.15 µM | 29 ± 1.39 µM | 205 to 207 °C | 9.67 ± 2.03 µM
5 | Cc1ccc(/C=C2\CN(C(=O)NCc3ccccc3)C/C(=C\c3ccc(C)cc3)C2=O)cc1 [Compound 42, N-Benzyl-3,5-bis[(E)-4-methylbenzylidene]-4-oxopiperidine-1-carboxamide] | 23 ± 1.82 µM | 4.9 ± 0.26 µM | 8.75 ± 0.4 µM | 31.5 ± 1.22 µM | 166 to 168 °C | 47 ± 2.17 µM
6 | CCNC(=O)N1C/C(=C\c2ccc(F)cc2)C(=O)/C(=C/c2ccc(F)cc2)C1 [Compound 37, N-Ethyl-3,5-bis[(E)-4-fluorobenzylidene]-4-oxopiperidine-1-carboxamide] | 0.57 ± 0.07 µM | 2.32 ± 0.3 µM | 1.18 ± 0.11 µM | 27.2 ± 1.72 µM | 180 to 182 °C | 9.78 ± 1.53 µM
7 | O=C1/C(=C/c2ccc(F)cc2)CN(C(=O)NCc2ccccc2)C/C1=C\c1ccc(F)cc1 [Compound 38, N-Benzyl-3,5-bis[(E)-4-fluorobenzylidene]-4-oxopiperidine-1-carboxamide] | 0.56 ± 0.03 µM | 2.16 ± 0.15 µM | 1.33 ± 0.17 µM | 35 ± 2.08 µM | 178 to 180 °C | 10.9 ± 1.42 µM
